In one series the test system is Visna virus. The series is described as follows: Visna virus test: inhibition of virus-induced cytopathic effect / virus multiplication in infected cell cultures. In kind it is cell-based. Conditions: Visna-maedi virus, 168 h, sheep fibroblast cells, 7 days at 37° C., Table 1, read-out: 2 MIC (minimum concentration at which an inhibition of virus multiplication was still observed). The protocol: In cell cultures which are infected with Visna virus, pronounced virus-induced, cytopathic effects appear 5 to 10 days after infection. By treatment of the infected cell cultures with the compounds according to the invention, the appearance of these cytopathic effects could be prevented.
(§1) The Visna virus test was carried out by the method of O. Narayan et al., Journal of Infectious Diseases 135, 5, 1977, 800-806. For this, the compounds according to the invention were diluted to non-cytotoxic concentrations in culture medium in 96-well microtiter plates. Subsequently, sheep fibroblast cells (5×10^4 cells per well) in production medium were added to each well. Each well then contained 50 μl of a Visna virus solution having a titre of about 2.5×10^4TCID50 (TCID=tissue culture infectious dose). This virus dose corresponds to an MOI (multiplicity of infection) of about 0.05.
The infected and treated cells and the controlled cells were incubated for 7 days at 37° C. and 5% CO2.
On appearance of the virus-induced cytopathogenic effect in the untreated virus control, the cultures were fixed using formalin and subsequently stained with a Giemsa solution.
(§2) Herein, MCC denotes cytotoxicity and MIC denotes the minimum concentration at which an inhibition of virus multiplication was still observed.

A further series is described as follows: Cytotoxicity (MCC). The conditions noted are these: sheep, sheep fibroblast cells; MCC denotes cytotoxicity; Table 1. Type of series: cell-based. The protocol: as §1, §2

The structures appear in SMILES notation. ≈ marks a conversion by molar mass, not a printed value.

With `N#Cc1cccc(NC(=O)CCN2C[C@@H](O)[C@@H](O)[C@H](O)[C@H]2CO)c1` [Example 68, N-(3-Cyanophenyl)-3-(1,5-didesoxy-1,5-imino-D-mannit-N-yl)propionamide], in the series with Visna virus, the MIC is 250 µg/mL (≈ 745 µM). Moreover, the MCC in “Cytotoxicity (MCC)” came out at 500 µg/mL.

Consider `O=C(CCN1C[C@@H](O)[C@@H](O)[C@H](O)[C@H]1CO)Nc1ccc2c(c1)OCO2` [Example 72, N-(3,4-Methylenedioxyphenyl)-3-(1,5-didesoxy-1,5-imino-N-yl)propionamide], for which, in the series on Visna virus, the MIC amounted to 500 µg/mL (≈ 1410 µM). Besides, in “Cytotoxicity (MCC)”, the MCC is above 1000 µg/mL.

Regarding `CCOc1ccc(NC(=O)CCN2C[C@@H](O)[C@@H](O)[C@H](O)[C@H]2CO)cc1` [Example 76, N-(4-Ethoxyphenyl)-3-(1,5-didesoxy-1,5-imino-D-mannit-N-yl)propionamide], the MIC in the series with Visna virus was found to be 500 µg/mL (≈ 1410 µM). The MCC in “Cytotoxicity (MCC)” was above 1000 µg/mL.

For the compound `O=C(CCN1C[C@@H](O)[C@@H](O)[C@H](O)[C@H]1CO)N1CCN(c2ccc(F)cc2)CC1` [Example 82, 3-(1,5-Didesoxy-1,5-imino-D-mannit-N-yl)-propionyl-1-(4-p-fluorophenyl)piperazine], in the series on Visna virus, the MIC turned out to be 500 µg/mL (≈ 1260 µM). The same compound returned an MCC in the series “Cytotoxicity (MCC)” above 1000 µg/mL.

On to `Cc1ccc(N2CCN(C(=O)CCN3C[C@H](O)[C@@H](O)[C@H](O)[C@H]3CO)CC2)cc1` [Example 87, 3-(1,5-Didesoxy-1,5-imino-D-glucit-N-yl)-propionyl-1-(4-tolyl)piperazine], for which, in the series on Visna virus, the MIC is 250 µg/mL (≈ 635 µM). In “Cytotoxicity (MCC)”, this compound yielded an MCC above 1000 µg/mL.

With `O=C(CCN1C[C@H](O)[C@@H](O)[C@H](O)[C@H]1CO)NCc1ccc(C(F)(F)F)cc1` [Example 89, N-(4-Trifluoromethylbenzyl)-3-(1,5-didesoxy-1,5-imino-D-glucit-N-yl)propionamide], in the series on Visna virus, the MIC is 500 µg/mL (≈ 1270 µM). Moreover, the MCC in “Cytotoxicity (MCC)” is 1000 µg/mL.

`O=C(CCN1C[C@H](O)[C@@H](O)[C@H](O)[C@H]1CO)NCC(=O)c1ccccc1` [Example 90]: the MIC in the series on Visna virus is 250 µg/mL (≈ 709 µM). Further, the MCC in the series “Cytotoxicity (MCC)” was 1000 µg/mL.

With `O=C(CCN1C[C@H](O)[C@@H](O)[C@H](O)[C@H]1CO)N1CCN(c2ccccc2F)CC1` [Example 92, 3-(1,5-Didesoxy-1,5-imino-D-glucit-N-yl)propionyl-1-(4-2-fluorophenyl)piperazine], in the series with Visna virus, the MIC is 250 µg/mL (≈ 629 µM). In addition, the MCC in “Cytotoxicity (MCC)” is above 1000 µg/mL.

As to `Cc1cccc(N2CCN(C(=O)CCN3C[C@H](O)[C@@H](O)[C@H](O)[C@H]3CO)CC2)c1` [Example 93, 3-(1,5-Didesoxy-1,5-imino-D-glucit-N-yl)propionyl-1-(3-methylphenyl)piperazine], in the series with Visna virus, the MIC stood at 500 µg/mL (≈ 1270 µM). Also, the MCC in “Cytotoxicity (MCC)” is above 1000 µg/mL.

`O=C(CCN1C[C@H](O)[C@@H](O)[C@H](O)[C@H]1CO)N1CCN(c2ccccc2[N+](=O)[O-])CC1` [Example 94, 3-(1,5-Didesoxy-1,5-imino-D-glucit-N-yl)propionyl-1-(4-2-nitrophenyl)piperazine]: the MIC in the series with Visna virus was 500 µg/mL (≈ 1180 µM). For the same compound, in “Cytotoxicity (MCC)”, the MCC was above 1000 µg/mL.

Consider `Cc1ccccc1N1CCN(C(=O)CCN2C[C@H](O)[C@@H](O)[C@H](O)[C@H]2CO)CC1` [Example 96, 3-(1,5-Didesoxy-1,5-imino-D-glucit-N-yl)propionyl-1-(4-2-methylphenyl)piperazine], for which, in the series with Visna virus, the MIC came out at 500 µg/mL (≈ 1270 µM). Moreover, the MCC in “Cytotoxicity (MCC)” is above 1000 µg/mL.

With `O=C(CCN1C[C@H](O)[C@@H](O)[C@H](O)[C@H]1CO)N1CCN(c2ncccn2)CC1` [Example 99, 3-(1,5-Didesoxy-1,5-imino-D-glucit-N-yl)-propionyl-1-(4-[2-pyrimidyl])piperazine], in the series on Visna virus, the MIC turned out to be 125 µg/mL (≈ 328 µM). For the same compound, the MCC in “Cytotoxicity (MCC)” is above 1000 µg/mL.

Consider `O=C(CCN1C[C@H](O)[C@@H](O)[C@H](O)[C@H]1CO)N1CCSCC1` [Example 100, 3-(1,5-Didesoxy-1,5-imino-D-glucit-N-yl)propionyl-1-thiomorpholide], for which the MIC with Visna virus was found to be 500 µg/mL (≈ 1560 µM). In the series “Cytotoxicity (MCC)”, this compound returned an MCC above 1000 µg/mL.

In the case of `O=C(CCN1C[C@H](O)[C@@H](O)[C@H](O)[C@H]1CO)NCc1cccs1` [Example 101, N-[(Thiophen-2-yl)-methyl]-3-(1,5-didesoxy-1,5-imino-D-glucit-N-yl)propionamide], the MIC in the series on Visna virus was 125 µg/mL (≈ 378 µM). Further, the MCC in “Cytotoxicity (MCC)” turned out to be 1000 µg/mL.

For the compound `C[C@H](NC(=O)CCN1C[C@H](O)[C@@H](O)[C@H](O)[C@H]1CO)c1ccccc1` [Example 102, N-[(1S)-1-Phenethyl]-3-(1,5-didesoxy-1,5-imino-D-glucit-N-yl)propionamide], the MIC in the series with Visna virus worked out at 125 µg/mL (≈ 369 µM). For the same compound, the MCC in “Cytotoxicity (MCC)” is above 1000 µg/mL.

Consider `C[C@@H](NC(=O)CCN1C[C@H](O)[C@@H](O)[C@H](O)[C@H]1CO)c1ccccc1` [Example 103], for which the MIC in the series on Visna virus was 125 µg/mL (≈ 369 µM). The MCC in “Cytotoxicity (MCC)” was above 1000 µg/mL.

In the case of `CCCCNC(=O)CCN1C[C@H](O)[C@@H](O)[C@H](O)[C@H]1CO` [Example 104, N-Butyl-3-(1,5-didesoxy-1,5-imino-D-glucit-N-yl)propionamide], in the series with Visna virus, the MIC was 250 µg/mL (≈ 861 µM). In addition, the MCC in “Cytotoxicity (MCC)” was above 1000 µg/mL.

Regarding `O=C(O)CCCN1C[C@H](O)[C@@H](O)[C@H](O)[C@H]1CO` [Example 107, 4-(1,5-Didesoxy-1,5-imino-D-glucit-N-yl)butanoic acid], the MIC in the series with Visna virus worked out at 500 µg/mL (≈ 2010 µM). The same compound had an MCC in “Cytotoxicity (MCC)” above 1000 µg/mL.

These data come from US4940705A, “N-substituted derivatives of 1-desoxynojirimycin and 1-desoxymannonojirimycin and pharmaceutical use” (Bayer Aktiengesellschaft, priority 1987, dated 1990).
